In patent US10426752B2, “Menthol-derivative compounds and use thereof as oral and systemic active agents” (priority 2009, dated 2019):
In brackets after ≈: the same amount, converted by molar mass. Where two headings read alike, the source gives them in different places.

Tests used:
PGE2 = PGE2 assay (anti-inflammatory test, SOP No. ATO-5307-00); assay type: cell-based
Protocol: The anti-inflammation test was carried out according to SOP No. ATO-5307-00 measuring the percent inhibition of PGE2.
(§1) The bacterial anti-attachment activity of a selected radical of menthol carbonate/carbamate derivatives of the present invention was investigated using the crystal violate assay (SOP No. ATO-5345-00) in a 384-well plate over a 0.0004-2500 ppm concentration range. The anti-oxidant activity of the menthol carbonate/carbamate derivatives of the present invention was determined using the lipid peroxides assay (Kamiaya Biomedical Co., Seattle, Wash.) which is a colorimetric method that measures reduction of cumene hydroperoxide radicals. The anti-microbial test was performed according to the SOP No. ATO-5308-00 for determination of Minimal Inhibitory Concentration (MIC). The anti-inflammatory test was carried out according to SOP No. ATO-5307-00 measuring the percent inhibition of PGE2.
The anti-inflammatory activity of 2-isopropyl-5-methylcyclohexyl 2-hydroxyphenyl carbamate was tested in PGE2 assay and compared to Triclosan.

GM-CSF = assay: 5-plex assay by using Luminex: GM-CSF; assay type: cell-based; conditions: pure compounds
Text: (§2) The menthol-derivative compound of the present invention was further evaluated in 5-plex assay by using luminex.

IL-1b = assay: 5-plex assay by using Luminex: IL-1b; assay type: cell-based; conditions: pure compounds
Text: as §2

IL-6 = assay: 5-plex assay by using Luminex: IL-6; assay type: cell-based; conditions: for IL-6 (reduction of untreated control): pure compounds
Text: as §2

TNF-α = assay: 5-plex assay by using Luminex: TNF-α; assay type: cell-based; conditions: for TNF-α (reduction of untreated control): pure compounds
Text: as §2

[1] = Lipid peroxides assay (anti-oxidant activity); assay type: biochemical; conditions: in simple solution, FIG. 2
Protocol: The anti-oxidant activity was determined using the lipid peroxidases assay (Kamiaya Biomedical Co., Seattle, Wash.) which is a colorimetric method that measures reduction of cumene hydroperoxide radicals.
as §1

MMP-13 mRNA = assay: Inhibition of MMP-13 mRNA expression stimulated by parathyroid hormone (PTH); assay type: cell-based; conditions: PTH for 4 hours, FIG. 4
Protocol: The anti-MMP-13 activity was determined by measuring the inhibition of MMP-13 mRNA expression that is stimulated by parathyroid hormone (PTH).

A.v = assay: Minimal Inhibitory Concentration (MIC) test, SOP No. ATO-5308-00; assay type: cell-based; conditions: for MIC: read-out: MIC (against A.v)
Protocol: The anti-microbial test was measured according to the SOP No. ATO-5308-00 for determination of Minimal Inhibitory Concenctration (MIC).
as §1

[2] = Artificial mouth model (anti-microbial efficacy); conditions: FIG. 5

Row | Structure (SMILES) | Anti-inflammatory activity in PGE2 assay (in words) (PGE2; pure compound) | IC50 (PGE2; pure compounds, PGE2 assay, read-out: IC50) [nM] | GM-CSF (reduction of untreated control) (GM-CSF) [%] | IL-1b (reduction of untreated control) (IL-1b) [%] | IL-6 production (in words) (IL-6; pure compound) | IL-6 (reduction of untreated control) (IL-6) [%] | TNF-α production (in words) (TNF-α; pure compound) | TNF-α (reduction of untreated control) (TNF-α) [%] | Anti-oxidant efficacy (in words) [1] | MMP-13 mRNA stimulated by parathyroid hormone (in words) (MMP-13 mRNA) | Anti-microbial efficacy in MIC test (in words) (A.v) | MIC (A.v; in vitro) [µg/mL] | Anti-microbial efficacy in artificial mouth model (in words) [2] | IC50 (PGE2) [nM] | MIC (A.v) [µg/mL]
1 | CC1CCC(C(C)C)C(OC(=O)Nc2ccccc2O)C1 (stereo not shown) [2-isopropyl-5-methylcyclohexyl 2-hydroxyphenyl carbamate] | comparable to Triclosan | 380 | 6 | 13 | significantly inhibits | 33 | significantly inhibits | 81 | comparable anti-oxidant efficacy with Vitamin E | significantly suppressed | good anti-microbial efficacy | 4.9 (≈ 16.8 µM) | good anti-microbial efficacy | – | –
2 | Oc1cc(Cl)ccc1Oc1ccc(Cl)cc1Cl [Triclosan, 2,4,4-trichloro-2′-hydroxydiphenyl ether, reference compound] | – | – | 4 | 13 | – | 37 | – | 58 | – | – | – | – | – | 480 | 1.9 (≈ 6.56 µM)
